# According to patent US7642261B2, “Use of 1-[4-(5-cyanoindol-3-yl)butyl]-4-(2-carbamoyl-benzofuran-5-yl)-piperazine and its physiologically acceptable salts” (Merck Patent GmbH, priority 2002, dated 2010):
# Experiments:
# Type in all cases: in vivo
# rats [1] = assay: Animal models of sexual function (behavioural measures for sexual activity); conditions: penile erection, ejaculatory behaviour, mating frequency in male rats, receptive behaviours in female rats
# Description: In animal models, various behavioural measures for sexual function can be used in animal models depending on the targeted dysfunction in humans, e.g. reduced libido, anorgasmia, or ejaculation disorders. Measures for sexual activity in animals include fascilitation or prolongation of penile erection, ejaculatory behaviour or frequency of mating behaviour in male rats, or the percentage of receptive behaviours in female rats [e.g.: S. Ahlenius and K. Larsson, Neurochem. Res., 1997, 22: 1065-1070; S. Ahlenius and K. Larsson, Psychopharmacology, 1998, 137: 374-382; J. Vega-Matuszcyk et al., Pharmacol. Biochem. Behav., 1998, 60: 527-532; J. M. Cantor et al., Psychopharmacology, 1999; 144: 355-362]. 1-[4-(5-cyancindol-3-yl)butyl]-4-(2-carbamoyl-benzofuran-5-yl)-piperazine or one of its physiologically acceptable salts, in particular 1-[4-(5-cyanoindol-3-yl)butyl]-4-(2-carbamoyl-benzofuran-5-yl)-piperazine hydrochloride, were effective on various measures mentioned before.
# mice [2] = assay: Four Plate Test (model for acute stress indication); conditions: oral dose of 3 mg/kg, five minute test period
# Description: A typical model for acute stress indication is the Four Plate Test according to C. Aron, P. Simon, C. Larousse, J. R. Boissier, Neuropharmacology 1971, 10: 459-469.
# The apparatus consists of small box with a floor made up of four metal plates. Each time the mouse crosses from one plate to another, it is given a brief electric footshock reducing the amount of exploratory behavior. The number of punished crossings from one plate to another (i.e. number of shocks accepted by the animal) is recorded during a five minute test period. Normal mice make only few punished crossings, i.e. accept only a few footshocks.
# 1-[4-(5-cyanoindol-3-yl)butyl]-4-(2-carbamoyl-benzofuran-5-yl)-piperazine hydrochloride following and oral dose of 3 mg/kg increased the number of punished crossings by 41%.
# rats [3] = assay: Elevated Plus Maze (model for agoraphobia), rats; conditions: 10 mg/kg p.o., 3 min test period
# Description: (§1) A typical model for Agoraphobia is named Elevated Plus Maze according to S. Pellow, P. Chopin, S. E. File, M. Briley, J. Neurosci. Meth., 1985,14: 145-167.
# (§2) The apparatus consists of an X-shaped platform elevated from the floor, with two “open” unprotected arms and two “closed” protected arms, with animals having free access to both arms. The rat or mouse is placed in the centre of the arms, and the number of entires made and the time spent on the open arms is measured in a 3 min test period. Normal animals have very low basal levels, i.e. avoid entering the open arms and stay only a for a very brief period on open arms.
# (§3) In rats, a dose of 10 mg/kg p.o. increased number of entries by 56% and time spent on open arms by 76%.
# mice [4] = assay: Elevated Plus Maze (model for agoraphobia), mice; conditions: 10 mg/kg p.o., 3 min test period
# Description: as §1, §2, §3
# rats [5] = system: rats
# Description: A typical animal model is the drug discrimination procedure in rats using cocaine as the stimulus cue (e.g. D. M. Wood and M. W. Emmett-Oglesby, J. Pharmacol. Exp. Ther., 1986; 237: 120-125; D. Huang and M. C. Wilson, Pharmacol. Biochem. Behav., 1986; 24: 205-210; J. M. Witkin at al., J. Pharmacol. Exp. Ther, 1991; 257: 706-713). Rats are trained to discriminate 10 mg/kg cocaine from saline in a two-lever discrimination procedure. Compounds which substitute for cocaine produce a dose-dependent increase in cocaine-appropriate responding, i.e. in selecting the cocaine-paired lever.
# 1-[4-(5-cyanoindol-3-yl)butyl]-4-(2-carbamoyl-benzofuran-5-yl)-piperazine or one of its physiologically acceptable salts, in particular 1-[4-(5-cyanoindol-3-yl)butyl]-4-(2-carbamoyl-benzofuran-5-yl)-piperazine hydrochloride, dose-dependently but only partially substituted for cocaine (maximally 60% choise of cocaine-paired lever at 50 mg/kg p.o.).
# mice or rats = assay: Hyperactivity induced by a mixture of dexamphetamine and chlordiazepoxide (model of mania/bipolar disorders); conditions: compared with lithium and valproate
# Description: A typical animal model of mania/bipolar disorders is the hyperactivity induced by a mixture of dexamphetamine and chlordiazepoxide according to A. L. Vale and F. Ratcliffe, Psychopharmacology, 1987; 91: 352-355, and B. J. Cao and N. A. Peng, Eur. J. Pharmacol., 1993; 237: 177-181. The dexamphetamine-chlordiazepoxide mixture induces strong hyperactivity in mice or rats.
# mice [6] = assay: Marble Burying Test (model for OCSD including OCD); conditions: 3 mg/kg, subcutaneous application
# Description: A typical model for OCSD including OCD is the Marble Burying Test according to Y. Ichimaru, T. Egawa, A. Sawa, Jpn. J. Pharmacol. 1995, 68: 65-70.
# The apparatus consists of an open cubic box with 25 clean glass marbles evenly spaced on sawdust. Individual mice are placed in the test box, and the number of glass marbles left uncovered after 20 minutes are counted. 1-[4-(5-cyanoindol-3-yl)butyl]-4-(2-carbamoyl-benzofuran-5-yl)-piperazine or one of its physiologically acceptable salts, in particular 1-[4-(5-cyanoindol-3-yl)butyl]-4-(2-carbamoyl-benzofuran-5-yl)-piperazine hydrochloride, following subcutaneous application inhibits mable burying in mice dose-dependently. For example, a dose of 3 mg/kg of 1-[4-(5-cyanoindol-3-yl)butyl]-4-(2-carbamoyl-benzofuran-5-yl)-piperazine hydrochloride nearly completely (92%) inhibits marble burying; equieffective doses of conventional serotonin reuptake inhibitors are e.g. 20 mg/kg for fluvoxamine or 17 mg/kg for fluoxetine and an equieffective dose of the 5-HT1A agonist ipsapirone is 10 mg/kg.
structure (smiles),measurement,setting,value
Cl.N#Cc1ccc2[nH]cc(CCCCN3CCN(c4ccc5oc(C(N)=O)cc5c4)CC3)c2c1 [1-[4-(5-cyanoindol-3-yl)butyl]-4-(2-carbamoyl-benzofuran-5-yl)-piperazine hydrochloride],effect on measures for sexual activity,rats [1],effective
same,increase of number of punished crossings,mice [2],41%
same,increase of number of entries on open arms,rats [3],56%
same,increase of time spent on open arms,rats [3],76%
same,increase of number of entries on open arms,mice [4],157%
same,increase of time spent on open arms,mice [4],105%
same,stimulus drug property by itself (abuse potential),"rats [5]; rat, in vivo",does not serve as a stimulus drug by itself
same,maximal choice of cocaine-paired lever (partial substitution for cocaine),"rats [5]; rats trained on 10 mg/kg cocaine vs saline, 50 mg/kg p.o.",60%
same,inhibition of hyperactivity induced by the dexamphetamine-chlordiazepoxide mixture,mice or rats,to the same degree as do lithium and valproate
same,inhibition of marble burying,mice [6],92%
